Test results as given in patent US5459146A, “4-substituted pyrazoloquinoline derivatives” (Schering Corporation, priority 1993, dated 1995).
≈ marks a conversion by molar mass, not a printed value.

Tests used:
[1] = compound toxicity assay (3H-LEU); assay type: cell-based
Protocol: (§1) The compound toxicity assay (3H-LEU), Plaque Reduction Assay for HSV Antiviral Activity (Plaque), and Transient Expression Assay for Effects Against HSV Early Gene Expression (β Galactosidase Assay or βgal) were carried out as set forth in U.S. Pat. No. 5,175,151 which is hereby incorporated by reference.

[2] = tested on: HSV Early Gene Expression; assay: Transient Expression Assay for Effects Against HSV Early Gene Expression (β Galactosidase Assay or βgal); assay type: cell-based; conditions: read-out: βgal
Protocol: as §1

HSV [3] = assay: Plaque Reduction Assay for HSV Antiviral Activity (Plaque); assay type: cell-based
Protocol: as §1

HSV-1 and HSV-2 = conditions: added to lidocaine or lidocaine hydrochloride; Haines et al.; cited from earlier work
HSV-1 = conditions: U.S. Pat. No. 4,757,088; cited from earlier work
herpes virus = conditions: U.S. Pat. No. 4,757,088; cited from earlier work
HSV-2 = conditions: U.S. Pat. No. 4,757,088; cited from earlier work
HSV [4] = conditions: Haines et al.; cited from earlier work

Compound	CC50 [1] [µg/mL]	IC50 [2] [µg/mL]	other results
CC(=O)Oc1ccc2nc3[nH]nc(C)c3c(OC(C)=O)c2c1 [A]	14 (≈ 46.8 µM)	3 (≈ 10 µM)	
CC(=O)Oc1ccc2nc3c(c(C)nn3C(C)=O)c(O)c2c1 [B]	15 (≈ 50.1 µM)	8 (≈ 26.7 µM)	
CCCCC(=O)Oc1ccc2nc3[nH]nc(C)c3c(OC(=O)CCCC)c2c1 [C]	5 (≈ 13 µM)	5 (≈ 13 µM)	
CCC(=O)Oc1ccc2nc3[nH]nc(C)c3c(OC(=O)CC)c2c1 [D]		11 (≈ 33.6 µM)	
COc1ccc2nc3c(c(C)nn3C(C)=O)c(O)c2c1 [E]	23 (≈ 84.8 µM)	3 (≈ 11.1 µM)	
CC(=O)n1nc(C)c2c(O)c3cc(Cl)ccc3nc21 [F]	37 (≈ 134 µM)	9 (≈ 32.6 µM)	
CC(=O)Oc1c2cc(F)ccc2nc2[nH]nc(C)c12 [G]	43 (≈ 166 µM)	3 (≈ 11.6 µM)	
CC(=O)n1nc(C)c2c(O)c3cc(F)ccc3nc21 [H]	32 (≈ 123 µM)	2 (≈ 7.71 µM)	
CCCCCCCn1nc(C)c2c(OC(C)=O)c3cc(OC)ccc3nc21 [I]	< 1	2.8 (≈ 7.58 µM)	
CC(=O)n1nc(C)c2c(O)c3cc(C)ccc3nc21 [J]	100 (≈ 392 µM)	9 (≈ 35.3 µM)	
COc1cc(C)c2[nH]c3c(c(C)nn3C(C)=O)c(=O)c2c1 [K]	> 100	5 (≈ 17.5 µM)	
CCCCCCCn1nc(C)c2c(=O)c3cc(C)ccc3[nH]c21 [L]	3.4 (≈ 10.9 µM)	3 (≈ 9.63 µM)	
CCCCCCCn1nc(C)c2c(OC(C)=O)c3cc(C)ccc3nc21 [M]	< 1	3 (≈ 8.49 µM)	
COc1cccc2c(O)c3c(C)nn(C(C)=O)c3nc12 [N]	100 (≈ 369 µM)	3 (≈ 11.1 µM)	
COc1ccc2nc3[nH]nc(C)c3c(OCCN(C)C)c2c1 [O]	5.4 (≈ 18 µM)	1.4 (≈ 4.66 µM)	IC50 (HSV [3]): 0.7 µg/mL (≈ 2.33 µM)
COc1ccc2nc3c(c(C)nn3CCCO)c(OC)c2c1 [P]		7.2 (≈ 23.9 µM)	IC50 (HSV [3]): > 20 µg/mL
COc1ccc2nc3[nH]nc(C)c3c(OCCN3CCOCC3)c2c1 [Q]		20 (≈ 58.4 µM)	IC50 (HSV [3]): 20 µg/mL (≈ 58.4 µM)
C=CCOc1ccc2nc3c(c(C)nn3CC=C)c(O)c2c1 [R]		20 (≈ 67.7 µM)	IC50 (HSV [3]): 20 µg/mL (≈ 67.7 µM)
CC(C)(CO)[C@@H](O)C(=O)NCCCO [dexpanthenol]			antiviral activity of lidocaine or lidocaine hydrochloride on addition of the substance (HSV-1 and HSV-2): significantly enhances
CCN(CC)CC(=O)Nc1c(C)cccc1C [lidocaine, 2-(diethylamino)-N-(2,6-dimethylphenyl)acetamide]			antiviral activity in cell culture against HSV-1 (HSV-1): antiviral agent; treatment of herpes virus infections of mammals (herpes virus): able to treat herpes virus infections of mammals; antiviral activity in cell culture against HSV-2 (HSV-2): antiviral agent; treatment of HSV oral and genital lesions in humans (HSV [4]): particularly effective
CC(C)(CO)[C@@H](O)C(=O)NCCC(=O)O [panthothenic acid]			antiviral activity of lidocaine or lidocaine hydrochloride on addition of the substance (HSV-1 and HSV-2): significantly enhances
